From patent US12485170B2, “Lipid composition targeting antigen-presenting cells and use thereof” (Beijing Youcare Kechuang Pharmaceutical Technology Co., Ltd., priority 2024, dated 2025)
Entries after “also recorded” stand apart in the source; their conditions may differ. Where two headings read alike, the source gives them in different places.

Experiment: Solubility of anionic lipids in ethanol during preparation
Protocol: General method 1: The components of the lipid composition (including permanently anionic lipids, permanently cationic lipids, and/or neutral lipids, or combinations thereof) were dissolved in ethanol according to the specified molar ratio to prepare an ethanol lipid complex solution (with a total lipid concentration of 100 to 600 mM). The ethanol lipid complex solution was rapidly added to RNase-free water using the ethanol injection method. After stirring for 30 minutes, the resulting lipid composition solution was filtered through a polycarbonate membrane with a pore size of 100 nm to 400 nm.
General method 2: Permanently anionic lipids or compounds were dissolved in RNase-free water to obtain RNase-free water containing permanently anionic lipids. Permanently cationic lipids and neutral lipids were dissolved in ethanol according to the specified molar ratio to prepare an ethanol lipid complex solution (with a total lipid concentration of 100 to 600 mM). The ethanol lipid complex solution was rapidly added to the RNase-free water containing permanently anionic lipids using the ethanol injection method. After stirring for 30 minutes, the resulting lipid composition solution was filtered through a polycarbonate membrane with a pore size of 100 nm to 400 nm.
The molar ratio of permanently anionic lipids, permanently cationic lipid DOTMA, and neutral lipid DOPE in the different complexes was controlled at 1:2:1, and the particle size and PDI were measured.

| Notes: solubility of the anionic lipid in ethanol | Notes: solubility of the anionic lipid in ethanol (listed as farnesyl pyrophosphate) | Notes: solubility of the anionic lipid in ethanol (listed as pA (2′-OMe) mpG) | Compound | Notes: solubility of the anionic lipid in ethanol (phosphate sodium salt) |
| --- | --- | --- | --- | --- |
| Insoluble in ethanol, | lower solubility in ethanol | – | CC(C)=CCC/C(C)=C/CC/C(C)=C/CO[P@@](=O)(O)OP(=O)(O)O (stereo in doubt) [Farnesyl pyrophosphate] | – |
| Insoluble in ethanol, | – | lower solubility in ethanol | COC1C(OP(=O)(O)OC[C@H]2O[C@@H](n3cnc4c(=O)[nH]c(N)nc43)C(O)C2O)[C@@H](COP(=O)(O)O)O[C@H]1n1cnc2c(N)ncnc21 (stereo partly drawn) [pA(2′-OMe)mpG, ((2R,3S,4S,5R)-3-(((((2R,3R,4S,5R)-5-(2-amino-6-oxo-1,6-dihydro-9H-purin-9-yl)-3,4-dihydroxytetrahydrofuran-2-yl)methoxy) (hydroxy)phosphoryl)oxy)-5-(6-amino-9H-purin-9-yl)-4-methoxytetrahydrofuran-2-yl) methyl dihydrogen phosphate] | – |
| – | – | – | CCCCCCCC/C=C\CCCCCCCC(=O)OC[C@H](COP(=O)([O-])OCCNC(C)=O)OC(=O)CCCCCCC/C=C\CCCCCCCC.[Na+] [ADOPE, 2-acetamidoethyl ((R)-2,3-bis(oleoyloxy)propyl) phosphate sodium salt] | good solubility in ethanol; also recorded: Soluble in ethanol, |
| Soluble in ethanol, | – | – | CCCCCCCC/C=C\CCCCCCCC(=O)O [Oleic acid] | – |
